In ChEMBL document CHEMBL4619730, “Hypolipidemic constituents from the aerial portion of Sibiraea angustata” (Bioorg Med Chem Lett, 2020):
Active and inactive are the calls of the source. The rule behind the calls is not given here.

What was measured:
Type in all cases: functional, cell-based
HepG2 [1] = assay: Hypolipidemic activity in human HepG2 cells assessed as inhibition of oleic acid-induced lipid accumulation at 10 uM
HepG2 [2] = assay: Downregulation of FASN mRNA expression in human HepG2 cells at 10 uM by qRT-PCR analysis
HepG2 [3] = assay: Downregulation of SREBF1 mRNA expression in human HepG2 cells at 10 uM by qRT-PCR analysis
HepG2 [4] = assay: Downregulation of HMGCR mRNA expression in human HepG2 cells at 10 uM by qRT-PCR analysis
HepG2 [5] = assay: Hypolipidemic activity against oleic acid-induced lipid accumulation in human HepG2 cell model assessed as decrease in triglycerides (16:0/14:0/20:5) level at 10 uM by UPLC-QTOF-MS analysis
HepG2 [6] = assay: Hypolipidemic activity against oleic acid-induced lipid accumulation in human HepG2 cell model assessed as decrease in diglycerides (20:5/16:0/0:0) level at 10 uM by UPLC-QTOF-MS analysis
HepG2 [7] = assay: Hypolipidemic activity against oleic acid-induced lipid accumulation in human HepG2 cell model assessed as decrease in phosphatidylcholine (O-16:0/20:5) level at 10 uM by UPLC-QTOF-MS analysis
HepG2 [8] = assay: Hypolipidemic activity against oleic acid-induced lipid accumulation in human HepG2 cell model assessed as decrease in 1acyl-sn-glycero-3phosphocholines (18:2/0:0) level at 10 uM by UPLC-QTOF-MS analysis
HepG2 [9] = assay: Hypolipidemic activity against oleic acid-induced lipid accumulation in human HepG2 cell model assessed as decrease in triglycerides (16:0/16:0/18:3) level at 10 uM by UPLC-QTOF-MS analysis
HepG2 [10] = assay: Hypolipidemic activity against oleic acid-induced lipid accumulation in human HepG2 cell model assessed as decrease in triglycerides (18:1/16:0/20:5) level at 10 uM by UPLC-QTOF-MS analysis
HepG2 [11] = assay: Hypolipidemic activity against oleic acid-induced lipid accumulation in human HepG2 cell model assessed as decrease in triglycerides (18:1/18:3/18:1) level at 10 uM by UPLC-QTOF-MS analysis
HepG2 [12] = assay: Hypolipidemic activity against oleic acid-induced lipid accumulation in human HepG2 cell model assessed as decrease in diglycerides (18:2/20:5/0:0) level at 10 uM by UPLC-QTOF-MS analysis
HepG2 [13] = assay: Hypolipidemic activity against oleic acid-induced lipid accumulation in human HepG2 cell model assessed as decrease in diglycerides (20:4/18:2/0:0) level at 10 uM by UPLC-QTOF-MS analysis
HepG2 [14] = assay: Hypolipidemic activity against oleic acid-induced lipid accumulation in human HepG2 cell model assessed as decrease in diglycerides (20:1/0:0/20:4) level at 10 uM by UPLC-QTOF-MS analysis
HepG2 [15] = assay: Hypolipidemic activity against oleic acid-induced lipid accumulation in human HepG2 cell model assessed as decrease in phosphatidylcholine (18:2/18:2) level at 10 uM by UPLC-QTOF-MS analysis

CC(C)=C[C@@H]1C/C(=C\CO[C@H]2O[C@@H](COC(=O)/C=C/c3ccc(O)cc3)[C@H](O)[C@@H](O)[C@@H]2O)C(=O)O1
Activity (HepG2 [1]): Active

CC(C)=CC(=O)/C=C(/C)CCO[C@H]1O[C@@H](COC(=O)/C=C/c2ccc(O)c(O)c2)[C@H](O)[C@@H](O)[C@@H]1O
Activity (HepG2 [1]): Active

COC(=O)/C=C/c1ccc(O)c(OC)c1
Activity (HepG2 [1]): inactive

CC(C)=C[C@H]1C/C(=C\CO[C@H]2O[C@@H](COC(=O)/C=C/c3ccc(O)cc3)[C@H](O)[C@@H](O)[C@@H]2O)C(=O)O1
Activity (HepG2 [1]): inactive

CC(C)=CC(=O)/C=C(\C)CCO[C@H]1O[C@@H](COC(=O)/C=C/c2ccc(O)c(O)c2)[C@H](O)[C@@H](O)[C@@H]1O
Activity (HepG2 [1]): Active

COc1ccc(/C=C/C(=O)OC[C@@H]2O[C@H](OC/C=C3\C[C@@H](C=C(C)C)OC3=O)[C@@H](O)[C@H](O)[C@H]2O)cc1O
Activity (HepG2 [1]): Active
inhibition (HepG2 [2]): Active
inhibition (HepG2 [3]): inactive
inhibition (HepG2 [4]): inactive
Activity (HepG2 [5]): Active
Activity (HepG2 [6]): Active
Activity (HepG2 [7]): Active
Activity (HepG2 [8]): Active
Activity (HepG2 [9]): Active
Activity (HepG2 [10]): Active
Activity (HepG2 [11]): Active
Activity (HepG2 [12]): Active
Activity (HepG2 [13]): Active
Activity (HepG2 [14]): Active
Activity (HepG2 [15]): Active

COc1ccc(/C=C/C(=O)OC[C@@H]2O[C@H](OC/C=C3\C[C@H](C=C(C)C)OC3=O)[C@@H](O)[C@H](O)[C@H]2O)cc1O
Activity (HepG2 [1]): Active
